Results taken from patent US11896609B2, “Pharmaceutical composition for treating inflammatory diseases comprising germanium telluride nanosheets coated with polyvinylpyrrolidone” (Industry-Academic Cooperation Foundation, priority 2021, dated 2024).

Legend:
[1] = tested on: DSS-induced colitis model; assay: DSS-induced inflammatory bowel disease (colitis) model; format: in vivo, C57BL/6 mice
Experimental: 7- to 8-week-old male C57BL/6 mice (Orient Bio Inc.; Seongnam, Korea) were used for the experiments. Colitis was induced by allowing an acute inflammatory bowel disease model to ingest drinking water to which 2% dextran sodium sulfate (DSS; MP Biochemical, Irvine, Ca, USA) was added for 7 days. A normal control group was allowed to ingest the same amount of water for the same time (FIG. 19).
The experimental groups were classified into the following four groups (Table 1): a normal control group (Group 1, n=8), a group in which colitis is induced by DSS (Group 2, n=8), a group in which sulfasalazine (SAZ), which is a common therapeutic agent, was administered to a DSS-induced colitis model (Group 3, n=8, SAZ=200 mg/kg/day), and a group in which GeTe-PVP NSs were administered to a DSS-induced colitis model (Group 4, n=8, GeTe-PVP NS=5 mg/kg/day).
Body weight changes and the disease activity index (DAI) of mice were confirmed every day for 7 days. Each score of weight loss index (0 to 4; FIG. 20A), rectal bleeding observed with the naked eye in the stool or anus (0 to 3; FIG. 20C), and stool consistency (0 to 3; FIG. 20B) is summed to evaluate the disease activity index on a 10-point scale (FIG. 20D). [Stevceva L, Pavli P, Husband A, Ramsay A, Doe WF. Dextran sulphate sodium-induced colitis is ameliorated in interleukin 4 deficient mice. Genes Immun 2001; 2:309-316.] […]

[2] = IVIS fluorescence imaging biodistribution after oral administration; format: in vivo, mice; conditions: 5 mg/kg oral, IVIS at 1, 6 and 24 hours
Experimental: After GeTe-PVP NSs (5 mg/kg, 100 μl) or an ICG solution (5 mg/kg, 200 μl) were orally administered, the mice were subjected to laparotomy at 1, 6, and 24 hours, and the biodistribution of GeTe-PVP NSs and the ICG solution was photographed with an in vivo imaging system (IVIS). Furthermore, the stomach, intestine, liver, lungs, pancreas, heart, and kidneys were removed at each time to confirm their biodistribution by fluorescence imaging with IVIS and quantify the amounts of GeTe-PVP NSs and ICG accumulated in each organ by FL intensity.

time after administration until which a large amount remained in the intestine (FL intensity) [2] [h]	SMILES	disease activity index (DAI) compared to DSS group (Group 2) ([1]; DSS colitis mice, SAZ 200 mg/kg/day, GeTe-PVP NS 5 mg/kg/day)	inflammatory findings (H&E, PAS staining) ([1]; proximal and distal regions of excised intestine)
	O=C(O)c1cc(/N=N/c2ccc(S(=O)(=O)Nc3ccccn3)cc2)ccc1O [sulfasalazine]	lower DAI compared to Group 2	many inflammatory findings were not found
≤ 1	CC1(C)C(/C=C/C=C/C=C/C=C2\N(CCCCS(=O)(=O)O)c3ccc4ccccc4c3C2(C)C)=[N+](CCCCS(=O)(=O)[O-])c2ccc3ccccc3c21 [ICG solution, Indocyanine green]		
